Here are results for five compounds from ChEMBL document CHEMBL1201862, “PubChem BioAssay data set” (2004).

SMILES strings stand for the structures.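 Method: 48-hour compound exposure of cells in 96-well plates, five concentrations, linear interpolation of endpoints. The concentration for 50% growth inhibition is given as GI50.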 Calls of active or inactive are those of the source. Cut-off read from the data, not from the text of the source: active = GI50 up to about 1.1 µM and inactive = higher.

Test in all cases: NCI tumour cell line growth inhibition, 48 h
The test system of assay [1] is Malme-3M.
For assay [2], the system named is U-251.
Assay [3] deals with CAKI-1.
For assay [4], the system named is SF-295.
Assay [5] has as its system NCI/ADR-RES.
Assay [6] relates to SK-MEL-5.
For assay [7], the system named is KM12.
For assay [8], the system named is RXF 393.
In assay [9] the test system is LOX IMVI.
Assay [10] has as its system TK-10.
In assay [11] the test system is ACHN.
The subject of assay [12] is MDA-MB-231.
Assay [13] deals with PC-3.
Assay [14] concerns DU-145.
In assay [15] the test system is HL-60.
For assay [16], the system named is SR.
The test system of assay [17] is SK-MEL-28.
For assay [18], the system named is HOP-62.
Assay [19] concerns NCI-H226.
The test system of assay [20] is A549.

In the case of `[N-]=[N+]=CC(=O)C1CCCN1C(=O)c1ccccc1` (stereo not given), the GI50 in assay [1], in [2], in [3], in assay [4], in assay [5] and in [6] was > 10 µM (inactive) each time. For the same compound, the GI50 in assay [7], in [8], in [9], in assay [10], in [11] and in assay [12] was > 10 µM (inactive) throughout. The GI50 in assay [13], in assay [14], in assay [15], in [16], in [17] and in assay [18] was > 10 µM (inactive) in each case. Moreover, the GI50 in [19] and in assay [20] was > 10 µM (inactive) each time.
With `C=C(C)C(=O)OC1CC2(C)OC2CC(OC(C)=O)/C(C)=C/C2OC(=O)C(=C)C21` (stereo not given), the GI50 was 0.573 µM (active) in assay [1]; 12.5 µM (inactive) in assay [2]; 2.53 µM (inactive) in [3]; 16.2 µM (inactive) in assay [4]; 2.68 µM (inactive) in assay [5]; 8.2 µM (inactive) in assay [6]. The GI50 in assay [7] was 11.2 µM (inactive); in assay [8], 2.04 µM (inactive); in assay [9], 2.73 µM (inactive); in [10] it was 3.45 µM (inactive); in [11], 1.49 µM (inactive); in [12], 6.49 µM (inactive). Moreover, the GI50 in assay [13] was 9.08 µM (inactive); in [14] it was 2.13 µM (inactive); in assay [15] it was 0.207 µM (active); in [16] it was 1.08 µM (active); in assay [17], 0.724 µM (active); in assay [18], 13.1 µM (inactive). The GI50 in assay [19] is 17.6 µM (inactive); in [20], 19 µM (inactive).
Turning to `C=C(Cl)[C@@](Cl)(CBr)CC[C@@H](Br)C(C)(C)Cl`, the GI50 in assay [1] was 21.7 µM (inactive); in assay [2], 0.154 µM (active); in assay [3], 0.467 µM (active); in assay [4], 0.207 µM (active); in [5], 0.522 µM (active); in assay [6] it was 2.67 µM (inactive). Besides, the GI50 in [7] is 0.228 µM (active); in assay [8], 0.126 µM (active); in [9] it was 13.2 µM (inactive); in [10], 0.269 µM (active); in assay [11] it was 0.149 µM (active); in assay [12] it was 0.211 µM (active). The GI50 in assay [13] is 0.555 µM (active); in assay [14] it was 0.664 µM (active); in assay [15], 0.3 µM (active); in assay [16] it was 15.4 µM (inactive); in [17], 0.394 µM (active); in assay [18] it was 0.103 µM (active). Also, the GI50 in assay [19] was 26.2 µM (inactive); in [20], 1.43 µM (inactive).
For `CCN(CC)c1ccc(/C=C(\C#N)c2nc(N)nc(N3N=C(C)CC3(C)C)n2)cc1`, the GI50 in [1] is 18.2 µM (inactive); in [2], 13.3 µM (inactive); in assay [3], 15.1 µM (inactive); in assay [4] it was 16.6 µM (inactive); in assay [5], 15.8 µM (inactive); in assay [6], 21.6 µM (inactive). Further, the GI50 in assay [7] was 13.1 µM (inactive); in [8] it was 8.93 µM (inactive); in assay [9], 14 µM (inactive); in [10] it was 14.8 µM (inactive); in [11], 14.7 µM (inactive); in assay [12], 13.6 µM (inactive). The GI50 is 37.2 µM (inactive) in assay [13]; 9.64 µM (inactive) in assay [14]; 43.7 µM (inactive) in assay [15]; 12.2 µM (inactive) in assay [16]; 36.1 µM (inactive) in assay [17]; 11.1 µM (inactive) in assay [18]. In addition, the results for the GI50 in assay [19] and in [20] were 2.9 µM (inactive) and 16.2 µM (inactive), respectively.
Turning to `COC(CN(C)C(=S)Nc1cccc2ccccc12)OC`, the GI50 in [1], in assay [2], in assay [3], in [4], in [5] and in [6] was > 10 µM (inactive) each time. Besides, the GI50 in [7], in assay [8], in assay [9], in [10], in assay [11] and in assay [12] was > 10 µM (inactive) throughout. Moreover, the GI50 in assay [13], in assay [14], in assay [15], in [16], in assay [17] and in [18] was > 10 µM (inactive) throughout. Besides, the GI50 in assay [19] and in assay [20] was > 10 µM (inactive) in each case.
